Measurements from patent publication US20070112025A1, “Use of kynurenine-3-hydroxylase inhibitors for the preparation of medicaments for the treatment of l-dopa induced movement disorders, dyskinesias, drug addiction, pain and cataract” (priority 2003, published 2007).

Columns and labels:
[1] = system: 6-OHDA lesioned rats; experiment: Rotational response to chronic L-DOPA in 6-OHDA lesioned rats (wearing-off model); format: in vivo, rat
Protocol: In 6-OHDA lesioned rats, a commonly used model of PD, motor response to L-DOPA decreases after chronic treatment. This effect mimics the “wearing-off” phenomenon observed in parkinsonian patients under chronic treatment with L-DOPA (Boldry et al., Brain Res 1995 Sep. 18; 692: 259-64).
In this rat model we evaluated the effect of Ro-618048 (40 mg/kg; ip) and of 2-(3,4-Dichloro-benzoyl)-cyclopropanecarboxylic acid (UPF-648, 50 mg/kg; ip), on the rotational response to chronic L-DOPA (28 days treatment, […]; ip) in comparison to MK-801 (0.1 mg/kg; ip). […]
To measure rotational behavior, rats were placed in circular cages and tethered to an automated rotometer. The number of complete turns performed in each 5-min period was recorded by a computer. […]
Rats were injected intraperitoneally twice a day at 8:00 and 16:00 for 28 consecutive days with either a combination of L-DOPA methylester (50 mg/kg) and the peripheral decarboxylase inhibitor benserazide (12.5 mg/kg) or saline. […] The duration of the response was measured by the time between the first 5 min interval when the rate of turning attained half its eventual average value and the first interval when the rate again declined to half its average values.
Data were analyzed by analysis of variance followed by Duncan's new multiple range test for post-hoc comparisons.

[2] = system: MTPP treated monkeys; conditions: NMDA antagonist in MTPP treated monkeys; cited from earlier work
[3] = system: Male Wistar rats; experiment: Cocaine-induced behavioral sensitization (locomotor activity); format: in vivo, rat
Protocol: We evaluated the effect of Ro-618048 (40 mg/kg; ip) and of 2-(3,4-Dichloro-benzoyl)-cyclopropanecarboxylic acid (UPF-648, 50 mg/kg; ip) in a model of cocaine-induced behavioral sensitization in rat.
Male Wistar rats (Charles River, Kingston, N.Y.) weighing 200-250 g upon arrival were used. Locomotor activity was measured in sixteen identical metal wire hanging cages each measuring 36 cm (L)×25 cm (W)×20 cm (H). Each cage contained two sets of infrared emitter-detector photocells positioned along the long axis 1-cm above the grid floor and 8 cm from the front and back of the cage. Background noise was provided by a white noise generator. Movement within the cages produced photocell interruptions, which were automatically recorded by an IBM-compatible computer.
Animals were habituated to the locomotor activity chambers for 2-3 consecutive days before the experiment. Rats received 5 daily IP injections of cocaine (15 mg/kg) or saline and either the Kyn-3OHase inhibitor Ro-618048 (40 mg/kg ip) or its vehicle and locomotor activity was recorded for 3 hours. Ten days after the last injection of cocaine or saline (day 15), the animals were challenged with 15 mg/kg of cocaine in absence of Ro-618048 and locomotor activity was again monitored for 3 h. […]

[4] = system: lens; experiment: In vivo model of cataract (chronic naphtalene treatment)
Protocol: (§1) We evaluated the effect of a treatment with inhibitors of Kyn-3OHase (Ro-618048) and of 2-(3,4-Dichloro-benzoyl)-cyclopropanecarboxylic acid (UPF-648, 50 mg/kg; ip) in an in vivo (chronic naphtalene treatment) and an in vitro models of cataract (culture lenses exposed to different insults).

[5] = system: MPTP-treated cynomolgus (macaca fascicularis) monkeys; experiment: L-DOPA induced dyskinesia model in parkinsonian monkeys; format: in vivo, cynomolgus monkey
Protocol: The studies were performed in five to six female MPTP-treated cynomolgus (macaca fascicularis) monkeys (weighing 2.9 to 5.0 kg) with a stable parkinsonian syndrome and reproducible dyskinesias to L-Dopa. The animals were handled in accordance with the National Institute of Health Guide for the Care and Use of Laboratory Animals and all procedures were approved by the Institutional Animal Care Committee of Laval University. They were housed separately in observation cages and exposed to a 12 hour light/dark cycle (lights on 6.0 a.m.-6.0 p.m.) in a temperature controlled room, 23±1° C. They were fed once daily in the afternoon with pellets and fruits, and had free access to water.
RO-618048 was administered alone and simultaneously with L-Dopa. In particular: • A) RO-618048 at increasing doses, 10, 30, 100 mg/kg was administered alone on three consecutive days and compared with vehicle administered before and after treatments. • B) RO-618048 at increasing doses, 10, 30, 100 mg/kg was given simultaneously with L-Dopa/benserazide on three consecutive days and compared with L-Dopa, which was also given on three consecutive days. During the interval between the treatments, to maintain priming, the animals received an oral treatment with L-Dopa/benserazide (100/25 mg; Prolopa.). Compounds
RO-618048 at increasing doses, 10, 30, 100 mg/kg was suspended in 0.1% (vol/vol) Tween 80/sterile water and homogenized in a glass homogeniser and mixed overnight until administration, as a homogeneous suspension. The maximum volume of drug suspension administered by oral gavage (p.o) at each increasing dose was 10, 20 and 40 ml respectively. As a control, a suspension of 0.1% (vol/vol) Tween 80/sterile water was administered p.o. (2 ml/kg). L-Dopa methyl ester (Sigma, St. Louis, Mo.); always together with benserazide 50 mg, (Hoffmann-La Roche, Montreal, Quebec), at doses ranging between 25 to 30 mg/kg (based on the threshold concentration for each animal) was dissolved in 1 ml of 0.9% sterile saline and administered s.c. alone or in combination with RO-618048.
The severity of dyskinesias was rated for the face, neck, trunk, arms and legs in the following way: None=0; Mild=1; Moderate=2; Severe=3, based on the assessment of the amplitude, interference with normal motor activity and the frequency of the abnormal movements, according to a scale which we have used in several published studies. The dyskinetic score obtained was the sum of the scores for all body segments for a maximal score of 21 points. The mean dyskinetic score for each animal has been calculated as the average of all the scores obtained for 3 hours or for the total duration of the effect of the drugs.
The mean Parkinsonian scores and also the mean dyskinetic scores obtained for each monkey, during 3 hours or the total duration of the effect of a given drug, were analysed using the nonparametric Friedman's test followed by multiple comparisons based on Friedman rank sums.

[6] = system: culture lenses; experiment: In vitro models of cataract (culture lenses exposed to different insults)
Protocol: as §1

[7] = system: Crl:CD-1 mice; experiment: Mice formalin test; format: in vivo, mouse; conditions: 40 mg/kg ip 15 min before formalin, p<0.05
Protocol: (§2) We evaluated the analgesic activity of Ro-618048 (40 mg/kg; ip) and of 2-(3,4-Dichloro-benzoyl)-cyclopropanecarboxylic acid (UPF-648, 50 mg/kg; ip) in animal models of inflammatory and neuropathic pain (formalin test in mice) as well as in acute pain test (tail flick in rats).
(§3) Adult male Wistar rats weighing 175-200 g, and Crl:CD-1 mice weighing 22-25 g at testing were used (Harlan-Nossan, Italy).
The formalin test in mouse is a procedure used to model neurogenic inflammation and continuous pain (Shibata et al., 1989, Pain 38: 347-352) as well as some features of post-injury pain in man (Dallel et al., 1995, Pain. 61: 11-16).
According to a modified protocol from Rosland et al., (1990, Pain 42: 235-242) mice were injected subcutaneously (s.c.) with 20 μl of 2.7% solution of formalin into the plantar surface of left hindpaw and placed immediately into clear PVC observation chambers (23×12×13 cm). Pain behavior was quantified by counting the cumulative licking time (sec) of the injected paw. Measurements were taken during the early phase (0-5 min) and late phase (30-40 min) after formalin injection (Tjolsen et al., 1992, Pain 51: 5-17). […]
Mice Formalin test. […] Data were evaluated by analysis of variance followed by Dunnett's t-test.
The cumulative licking time (sec) of the injected paw was recorded during the early phase (0-5 min) and late phase (30-40 min) after formalin injection.

[8] = system: Wistar rats; experiment: Tail flick test; format: in vivo, rat; conditions: 40 mg/kg ip, 90 min after administration; control 3.9±0.4 sec
Protocol: as §2, §3
The tail flick test measures the thermal nociceptive threshold defined as the latency required to elicit a tail response to heat. The test was performed according to the method described by D'Amour and Smith (1941, J. Pharmacol. Exp. Ther. 72:74-79) using an analgesiometer (U. Basile, Italy). Rats were treated ip with the drug (Ro-618048 40 mg/kg) or vehicle and 90 min after, each animal was placed on a platform and the tail was exposed to a focused beam of radiant heat approximately 3 cm from the tip. The beam light intensity was adjusted to produce a reaction latency of 3-5 sec in control rats. The thermal nociceptive threshold was defined as the latency required to elicit a tail response. A 20 sec cut-off was used to prevent tissue damage.
Tail Flick Test. The latency was defined as the interval of time (sec) between the onset of the thermal stimulus and the flick of the tail. Data were evaluated by analysis of variance followed by Dunnett's t-test.

[9] = system: glutamate release; conditions: KYNA 30-100 nM; without modifying ionotropic or metabotropic GLU receptor function; cited from earlier work
[10] = RO-618048 alone 10, 30, 100 mg/kg p.o., compared with vehicle

For `C[C@]12N[C@H](Cc3ccccc31)c1ccccc12` [MK801], the “decreased rotational response to L-DOPA (duration)” value ([1]; MK801 0.1 mg/kg ip, 29th day after 28 days L-DOPA) is given as “similar” and the L-DOPA induced dyskinesia [2] is given as “reduced L-DOPA induced dyskinesia”.
In the case of `COc1ccc(S(=O)(=O)Nc2nc(-c3cccc([N+](=O)[O-])c3)cs2)cc1OC` [Ro-618048], the “increase of locomotor response to cocaine, fifth day vs first day” value ([3]; Ro-618048 40 mg/kg IP with cocaine 15 mg/kg daily for 5 days, vehicle 20% higher) is reported as “did not show any significant increase”, the “increased locomotor activity response to cocaine challenge vs first day” value ([3]; challenge cocaine 15 mg/kg ten days after last injection, without Ro-618048, pretreated 40 mg/kg IP, vehicle 30% higher) is reported as “did not” and the “degree of opacification of the lens” value [4] is reported as “reduce the degree of opacification of the lens”. The “decreased rotational response to L-DOPA (duration)” value ([1]; Ro-618048 40 mg/kg ip, acute co-administration on 29th day after 28 days L-DOPA) was “reversed”, the “reduction of dyskinetic response to L-Dopa” value ([5]; 30 mg/kg p.o. simultaneously with L-Dopa/benserazide (25 to 30 mg/kg)) was “about 20%” and the “reduction of dyskinetic response to L-Dopa” value ([5]; 100 mg/kg p.o. simultaneously with L-Dopa/benserazide (25 to 30 mg/kg)) was “about 20%”. For the same molecule, the Parkinsonian score [5, 10] was “did not have any effect”, the locomotor activity [5, 10] was “did not have any effect” and the “effect on improvement of parkinsonism induced by L-Dopa” value ([5]; acute RO-618048 with L-Dopa) was “without any negative effect”. For the same molecule, the “degree of opacification of the lens” value [6] was “reduce the degree of opacification of the lens”, the “cumulative licking time, early phase (0-5 min)” value ([7]; control 106±4.39 sec) was 75 ± 5.5 s and the “cumulative licking time, late phase (30-40 min)” value ([7]; control 123±12.8 sec) was 68 ± 14.3 s. For the same molecule, the “tail flick response latency to noxious heat” value [8] was 6.1 ± 0.4 s.
With `O=C(O)C1CC1C(=O)c1ccc(Cl)c(Cl)c1` (stereo not drawn) [UPF-648, 2-(3,4-Dichloro-benzoyl)-cyclopropanecarboxylic acid] the “degree of opacification of the lens” value [4] was “reduce the degree of opacification of the lens” and the “degree of opacification of the lens” value [6] was “reduce the degree of opacification of the lens”.
For `O=C(O)c1cc(=O)c2ccccc2[nH]1` [KYNA, kynurenic acid], the glutamate release [9] is given as “strongly inhibits glutamate release”.
